Like-named read-outs stand apart in the source and are kept apart here.
Tests used:
Aβ1-42 = target: T1, Aβ1-42 (Homo sapiens, UniProt P05067); test: Amyloid-beta disaggregation test by Thioflavin-T analysis; format: biochemical; settings: for disaggregation effect for amyloid-beta protein aggregates: statement in words summarising the Thioflavin-T results
T1 construct: dissolving Aβ1-42 or Tau-RD3 (Tau repeat domain 3) monomers in DMSO
Procedure: (§1) Each compound was dissolved in DMSO to a concentration of 10 mM. Then, the compounds were diluted with 6 % DMSO (in DW) for use.
(§2) Amyloid-beta and tau solutions were prepared by dissolving Aβ1-42 or Tau-RD3 (Tau repeat domain 3) monomers in DMSO to a concentration of 10 mM. Then, the solutions were diluted to 100 µM with DW and stored on ice.
(§3) Meanwhile, Thioflavin-T was dissolved in 50 mM glycine buffer (pH 8.5) to a concentration of 5 mM. Then, the solution was diluted to 5 µM with 50 mM glycine buffer (pH 8.5) and stored in the dark, protected from light.
(§4) The amyloid-beta and tau solutions prepared in Example 1.1 were each placed in 1.5 mL microcentrifuge tubes to a concentration of 50 µM or 35 µM, respectively, and then reacted at 37 °C for 24 hours.
(§5) To each 1.5 mL microcentrifuge tube in which the amyloid-beta and tau aggregation was complete, the compounds were added at concentrations ranging from 500 µM down to 0 µM by serial dilution, and then further reacted at 37 °C for 48 hours.
(§6) 25 µL of each completed reaction solution was added to each well of a 96-well fluorescence analysis plate, and 75 µL of the Thioflavin-T solution was added to each well. After reacting for 5 minutes at room temperature in the dark, the fluorescence value was measured at 450 nm (excitation) and 485 nm (emission) using a multi-mode microplate reader.
(§7) The fluorescence value of the group (control group) treated with only amyloid-beta or tau and aggregated for 72 hours was designated as 100 %. The fluorescence values measured after treating the amyloid-beta and tau aggregates (formed by reacting for 24 hours) with each compound by concentration and reacting for an additional 48 hours were converted to relative values.

[1] = target: Tau-RD3 (Tau repeat domain 3) (Homo sapiens, UniProt P10636); test: Tau disaggregation test by Thioflavin-T analysis; format: biochemical
Tau-RD3 (Tau repeat domain 3), sequence (P10636 623-653 limits assumed): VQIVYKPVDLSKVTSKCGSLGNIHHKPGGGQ
Procedure: as §1, §2, §3, §4, §5, §6, §7

[2] = Aβ1-42 50 µM aggregated 24 hours, then compound 0 - 500 µM for 48 hours at 37 °C, concentration disaggregating 50 % of aggregates vs control, read-out: EC50 (µM) Aβ
[3] = Tau-RD3 35 µM aggregated 24 hours, then compound 0 - 500 µM for 48 hours at 37 °C; concentration disaggregating 50 % of aggregates vs control; read-out: EC50 (µM) Tau
[4] = statement in words summarising the Thioflavin-T results

T1 sequence (P05067 672-713 limits assumed): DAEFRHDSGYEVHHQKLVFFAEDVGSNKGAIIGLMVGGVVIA

| SMILES | EC50 (Aβ1-42; [2]) [µM] | EC50 [1, 3] [µM] | other results |
| --- | --- | --- | --- |
| COc1cc(OCCCc2ccccc2)cc2c1C(c1scnc1C)=C(c1cccnc1)C2=O [Compound 47, 4-methoxy-3-(4-methylthiazol-5-yl)-6-(3-phenylpropoxy)-2-(pyridin-3-yl)-1H-inden-1-one] | < 20 | < 20 | disaggregation effect for amyloid-beta protein aggregates (Aβ1-42): remarkably excellent disaggregation effect; disaggregation effect for tau protein aggregates [1, 4]: remarkably excellent disaggregation effect |
| Cc1ncsc1C1=C(c2cnccn2)C(=O)c2cc(OCCCc3ccccc3)ccc21 [Compound 41, 3-(4-methylthiazol-5-yl)-6-(3-phenylpropoxy)-2-(pyrazin-2-yl)-1H-inden-1-one] | < 20 | > 250 | – |
| O=C1C(c2cccc(N3CCOCC3)c2)=C(c2ccccc2)c2ccccc21 [Compound 18, 2-(3-morpholinophenyl)-3-phenyl-1H-inden-1-one] | < 20 | > 250 | – |
| Cc1ncsc1C1=C(c2cccc(CN3CCN(C)CC3)c2)c2ccccc2C1=O [Compound 93, 3-(3-((4-methylpiperazin-1-yl)methyl)phenyl)-2-(4-methylthiazol-5-yl)-1H-inden-1-one] | 20 to 100 | 20 to 100 | – |
| COc1cc(OC)c2c(c1)C(=O)C(c1ccccc1)=C2c1ccccc1 [Compound 97, 4,6-dimethoxy-2,3-diphenyl-1H-inden-1-one] | < 20 | > 250 | – |
| O=C1C(c2cncs2)=C(c2cncs2)c2ccc(O)cc21 [Compound 83-6, 6-hydroxy-2,3-di(thiazol-5-yl)-1H-inden-1-one] | > 250 | 100 to 250 | – |
| Cc1ncsc1C1=C(c2cccnc2)C(=O)c2cc(NC3CCOCC3)ccc21 [Compound 56, 3-(4-methylthiazol-5-yl)-2-(pyridin-3-yl)-6-((tetrahydro-2H-pyran-4-yl)amino)-1H-inden-1-one] | 20 to 100 | 20 to 100 | – |
| Cc1ncsc1C1=C(c2ccncc2)C(=O)c2cc(O)ccc21 [Compound 39-3, 6-hydroxy-3-(4-methylthiazol-5-yl)-2-(pyridin-4-yl)-1H-inden-1-one] | > 250 | > 250 | – |
| COc1ccc2c(c1)C(=O)C(c1cccnc1)=C2c1cnn(C)c1 [Compound 42-6, 6-methoxy-3-(1-methyl-1H-pyrazol-4-yl)-2-(pyridin-3-yl)-1H-inden-1-one] | 20 to 100 | 20 to 100 | – |
| Cc1ccccc1C1=C(c2ccccc2)c2ccccc2C1=O [Compound 6, 3-phenyl-2-(o-tolyl)-1H-inden-1-one] | 20 to 100 | > 250 | – |
| Cc1ncsc1C1=C(c2cccc(CN3CCN(C)CC3)c2)C(=O)c2ccccc21 [Compound 88, 2-(3-((4-methylpiperazin-1-yl)methyl)phenyl)-3-(4-methylthiazol-5-yl)-1H-inden-1-one] | < 20 | 20 to 100 | – |
| CN1CCN(c2cccc(C3=C(c4ccccc4)c4ccccc4C3=O)c2)CC1 [Compound 91, 2-(3-(4-methylpiperazin-1-yl)phenyl)-3-phenyl-1H-inden-1-one] | < 20 | > 250 | – |
| CN1CCN(c2ccc3c(c2)C(=O)C(c2cccc(N4CCOCC4)c2)=C3c2cccc(N3CCOCC3)c2)CC1 [Compound 80, 6-(4-methylpiperazin-1-yl)-2,3-bis(3-morpholinophenyl)-1H-inden-1-one] | 20 to 100 | 100 to 250 | – |
| Cc1ncsc1C1=C(c2ccn(C)n2)C(=O)c2cc(OCCCc3ccccc3)ccc21 [Compound 26, 2-(1-methyl-1H-pyrazol-3-yl)-3-(4-methylthiazol-5-yl)-6-(3-phenylpropoxy)-1H-inden-1-one] | < 20 | > 250 | – |
| CCCOc1ccc2c(c1)C(=O)C(c1ccccc1)=C2c1ccccc1 [Compound 3, 2,3-diphenyl-6-propoxy-1H-inden-1-one] | < 20 | > 250 | – |
| Cc1ncsc1C1=C(c2scnc2C)c2ccc(N3CCN(C)CC3)cc2C1=O [Compound 79, 6-(4-methylpiperazin-1-yl)-2,3-bis(4-methylthiazol-5-yl)-1H-inden-1-one] | 20 to 100 | 20 to 100 | – |
| CC(C)Oc1ccc2c(c1)C(=O)C(c1ccccc1)=C2c1ccccc1 [Compound 4, isopropoxy-2,3-diphenyl-1H-inden-1-one] | – | – | EC50 (Aβ1-42; read-out: EC50 (µM) Aβ, Aβ1-42 50 µM aggregated 24 hours, then compound 0 - 500 µM for 48 hours at 37 °C, concentration disaggregating 50 % of aggregates vs control): 20 to 100 µM; EC50 ([1]; read-out: EC50 (µM) Tau; Tau-RD3 35 µM aggregated 24 hours, then compound 0 - 500 µM for 48 hours at 37 °C; concentration disaggregating 50 % of aggregates vs control): > 250 µM |

| SMILES | EC50 (Aβ1-42; [2]) [µM] | EC50 [1, 3] [µM] | other results |
| --- | --- | --- | --- |
| O=C1C(c2ccccc2)=C(c2ccccc2)c2ccccc21 [Compound 1, 2,3-diphenylinden-1-one] | < 20 | > 250 | – |
| Cc1ncsc1C1=C(c2cn[nH]c2)C(=O)c2cc(OCCCc3ccccc3)ccc21 [Compound 27, 3-(4-methylthiazol-5-yl)-6-(3-phenylpropoxy)-2-(1H-pyrazol-4-yl)-1H-inden-1-one] | < 20 | < 20 | disaggregation effect for amyloid-beta protein aggregates (Aβ1-42): remarkably excellent disaggregation effect; disaggregation effect for tau protein aggregates [1, 4]: remarkably excellent disaggregation effect |
| Cc1ncsc1C1=C(c2cccnc2)C(=O)c2cc(NCCOc3ccccc3)ccc21 [Compound 55, 3-(4-methylthiazol-5-yl)-6-((2-phenoxyethyl)amino)-2-(pyridin-3-yl)-1H-inden-1-one] | < 20 | > 250 | – |
| Cc1ncsc1C1=C(c2ccc(N3CCN(C)CC3)cc2)C(=O)c2cc(OCCCc3ccccc3)ccc21 [Compound 76, 2-(4-(4-methylpiperazin-1-yl)phenyl)-3-(4-methylthiazol-5-yl)-6-(3-phenylpropoxy)-1H-inden-1-one] | < 20 | < 20 | – |
| Cc1ncsc1C1=C(c2ccn(C3CCN(C)CC3)n2)C(=O)c2cc(OCCCc3ccccc3)ccc21 [Compound 29, 2-(1-(1-methylpiperidin-4-yl)-1H-pyrazol-3-yl)-3-(4-methylthiazol-5-yl)-6-(3-phenylpropoxy)-1H-inden-1-one] | – | > 250 | EC50 (Aβ1-42): > 250 µM |
| CNc1ccc2c(c1)C(=O)C(c1cccnc1)=C2c1scnc1C [Compound 50, 6-(methylamino)-3-(4-methylthiazol-5-yl)-2-(pyridin-3-yl)-1H-inden-1-one] | > 250 | > 250 | – |
| Cc1ncsc1C1=C(c2ccncc2)C(=O)c2cc(OCCCc3ccccc3)ccc21 [Compound 39, 3-(4-methylthiazol-5-yl)-6-(3-phenylpropoxy)-2-(pyridin-4-yl)-1H-inden-1-one] | < 20 | > 250 | – |
| Cc1ccccc1C1=C(c2ccccc2C(=O)O)C(=O)c2ccccc21 [Compound 99-8, 2-(1-oxo-3-(o-tolyl)-1H-inden-2-yl)benzoic acid] | > 250 | 20 to 100 | – |
| Cc1ncsc1C1=C(c2cccnc2)C(=O)c2cc(NC3CCN(C)CC3)ccc21 [Compound 51, 6-((1-methylpiperidin-4-yl)amino)-3-(4-methylthiazol-5-yl)-2-(pyridin-3-yl)-1H-inden-1-one] | < 20 | 20 to 100 | – |
| COc1ccccc1C1=C(c2cccnc2)C(=O)c2cc(OCCCc3ccccc3)ccc21 [Compound 44, 3-(2-methoxyphenyl)-6-(3-phenylpropoxy)-2-(pyridin-3-yl)-1H-inden-1-one] | < 20 | > 250 | – |
| CN1CCN(c2ccc(C3=C(c4ccccc4)C(=O)c4ccccc43)cc2)CC1 [Compound 94, 3-(4-(4-methylpiperazin-1-yl)phenyl)-2-phenyl-1H-inden-1-one] | < 20 | 20 to 100 | – |
| O=C1C(c2ccccc2)=C(c2cccc(N3CCOCC3)c2)c2ccccc21 [Compound 15, 3-(3-morpholinophenyl)-2-phenyl-1H-inden-1-one] | 20 to 100 | > 250 | – |
| Cc1ncsc1C1=C(c2ccc(CN3CCN(C)CC3)cc2)c2ccccc2C1=O [Compound 92, 3-(4-((4-methylpiperazin-1-yl)methyl)phenyl)-2-(4-methylthiazol-5-yl)-1H-inden-1-one] | 20 to 100 | 20 to 100 | – |
| COc1ccccc1C1=C(c2cccnc2)C(=O)c2cc(O)ccc21 [Compound 44-8, 6-hydroxy-3-(2-methoxyphenyl)-2-(pyridin-3-yl)-1H-inden-1-one] | 100 to 250 | 20 to 100 | – |
| O=C1C(c2ccccc2)=C(c2ccccc2)c2ccc(N3CCOCC3)cc21 [Compound 12, 6-morpholino-2,3-diphenyl-1H-inden-1-one] | < 20 | > 250 | – |
| Cc1ccccc1C1=C(c2ccccc2C)c2ccc(O)cc2C1=O [Compound 82, 6-hydroxy-2,3-di-o-tolyl-1H-inden-1-one] | < 20 | 20 to 100 | – |
